Reference: patent US20130195956A1, “Transdermal Hormone Delivery” (Agile Therapeutics, Inc., priority 2012, published 2013)
Where “and” joins values, the source holds several entries; their conditions need not be identical. Equal entries are not always repeated.

Legend:
[1] = 7 day in vitro skin permeation, Franz diffusion cells, hairless rat abdominal skin; conditions: for average cumulative amount permeated at the end of 7 days: donor: saturated solution in PEG-400, FIG. 6
Description: Skin was isolated from hairless rats (male, 8-10 weeks old and 350-400 g in weight) that were obtained from Charles River (Wilmington, Mass., USA). All the animals were allowed to acclimate for at least 1 week prior to their use in any experiment. […] Hairless rats were euthanized by carbon dioxide asphyxiation prior to the permeation experiment and abdominal skin was carefully excised using a pair of scissors and forceps. The underlying subcutaneous fat was removed from the excised skin and the abdominal skin thus obtained (˜1 mm thick) was used for the permeation experiments.
The 7 day permeation studies were performed using in vitro Franz diffusion cells (PermeGear, Inc., Hellertown, Pa., USA) having an effective diffusion surface area of 0.64 cm^2 (n≧3). […] These served as corresponding donor solutions. The receptor phase consisted of PEG 400 having gentamycin sulfate (80 mg/L). Gentamycin sulfate was added to the receptor phase to prevent microbial growth during the 7 day study. During the entire study, the receptor phase was maintained at 37° C. with constant stirring at 600 rpm. Freshly excised and cleaned hairless rat abdominal skin was obtained on the day of the experiment. This isolated skin was placed in between the donor and the receptor compartments and the entire set up was then secured in place using a clamp. Donor solution (0.5 ml) was then loaded into the donor cells using a pipette and the top was covered using parafilm and a silver foil. […] The only difference was that instead of using the saturated desogestrel solution as donor, desogestrel containing patches were used. Transdermal patches, large enough to cover the receptor compartment top, were cut out of the cast sheets, the release liner was removed and the patches were placed on the skin such that the adhesive side of the patch was facing the stratum corneum side of the skin. The donor cell was then placed and the entire set up was secured using a clamp. All samples obtained were analyzed using HPLC.
Analysis of the amount of drug in the samples was performed using a chromatographic method described in the literature with few modifications. […] Phenomenex RP C6 Luna 5μ column (Phenomenex, Torrance, Calif.) set at 35° C. was employed for gradient elution method. The mobile phase consisted of methanol and water. The gradient method was initiated with the use of a 70:30 (methanol:water) solution, followed by a change of the mobile phase composition to 100% methanol over the next 7 minutes. This methanol:water (100:0) composition was maintained till the 10th minute and then the mobile phase composition was changed again to a composition of 70:30 (methanol:water) by the 12th min. The run time of each injection was 15 minutes and the injection volume was 100 μl. The flow rate of the mobile phase throughout the run was 1.5 ml/min. […] The standard curve was linear over the range of 0.5-100 μg.
Student t-test and analysis of variance (ANOVA) were used to determine statistically significant differences. The p-value used in this study was 0.05.

[2] = Skin permeation of LNG from LNG/EE patches with four enhancers, Franz diffusion cells, human skin compared with rat skin; type: in vitro ADME; conditions: patches of Example 1 with four skin permeation enhancers; FIGS. 1-4
Method: A skin permeation experiment for the delivery of LNG from the patches prepared in Example 1 was performed (n=3). Three separate patches were cut to appropriate size such that they would cover the top of the receptor compartment of a Franz skin diffusion cell (exposed surface area of 0.64 cm^2). Hairless rat skin was freshly excised before the permeation experiment. PBS (0.1×) having 80 mg/L gentamycin sulfate and 0.5% Volpo was used as the receptor buffer (pH 7.2). Samples (0.5 ml) were taken at predetermined time points (3 hr, 6 hr, 12 hr, 24 hr, 2nd, 3rd, 4th, 5th, 6th and 7th day) and were analyzed for LNG levels using High Pressure Liquid Chromatography (HPLC).
The average flux (FIG. 1) and the cumulative amount (FIG. 2) of LNG that permeated across the hairless rat skin, during a period of four days, were determined and are shown below. In addition, patches manufactured using production equipment under the same processes and containing exactly the same amounts and ingredients as the pilot patches mentioned in Example 1 were used for comparison.
The above studies were performed using rat skin, which, for many drugs, is known to have similar permeation characteristics as human skin. […]

[3] = cited from earlier work
[4] = Method: Sheets were cast with the blend shown in Table 1 and dried for 17 minutes at 60 degrees Centigrade. Drying was followed by lamination to a polyester backing membrane and circular cutting of individual patches. The dry formulation of the patches is shown in the second column of Table 1.
[5] = Slide and patch crystallization studies for saturation solubility in adhesives and additives; type: physicochemical
Method: Drug in adhesive transdermal patches were prepared as follows. Predetermined amounts of drug, adhesive, ethyl acetate and/or additives (copovidone/mineral oil) were weighed into a glass container with lid and sealed using a parafilm to minimize loss of organic solvents. The formulation was stirred for 2 hours using a magnetic stirrer to form a homogenous mixture. The mixture was then cast on a release liner (3 mil fluoropolymer coated polyester film, Scotchpak™ 9744 from 3M) using a Gardner film casting knife (BYK-AG-4300 series, Columbia, Md., USA) and the cast sheet was dried in an oven at 60° C. for 17 minutes. Thereafter, the entire sheet was laminated using a backing membrane (2 mil polyester with an ethylene vinyl acetate copolymer, Scotchpak™ 9732 from 3M), which was placed on the cast film using a roller, ensuring no air pockets were formed. […]
The three different adhesives that were investigated for the preparation of desogestrel transdermal patches were two acrylate adhesives, Duro-Tak 87-4098 and Duro-Tak 87-202A, and one PIB adhesive, Duro-Tak 87-608A. […] The saturation solubility of desogestrel in these adhesives was determined using the slide method discussed earlier as well as crystallization studies on complete patches. […]

[6] = general statement in description

average cumulative amount permeated at the end of 7 days ([1]; hairless rat skin) [μg/sq.cm] | permeation through rat skin compared with permeation through human skin [2] | saturation of the patch with the hormone [4] [%] | skin permeation relative to ethinyl estradiol [1, 6] | skin permeation relative to levonorgestrel [1, 6] | average cumulative amount and flux from saturated PEG solution compared with optimized patches ([1]; p<0.05, hairless rat skin) | average flux and cumulative amount compared with levonorgestrel ([1]; saturated PEG-400 solutions, p<0.05, FIGS. 5 and 6) | saturation solubility in PIB adhesive (Duro-Tak 87-608A) ([5]; slides and patches) | saturation solubility in copovidone (Plasdone S-630) ([5]; slides, drug:copovidone w/w ratios, up to 6 months) | Compound | logP [3]
1.8±0.1 | very similar |  |  |  |  |  |  |  | C#C[C@]1(O)CC[C@H]2[C@@H]3CCC4=CC(=O)CC[C@@H]4[C@H]3CC[C@@]21CC [levonorgestrel] | 3.8
 |  | 22 |  |  |  |  |  |  | C#C[C@]1(O)CC[C@H]2[C@@H]3CCc4cc(O)ccc4[C@H]3CC[C@@]21C [ethinyl estradiol] | 
389.4±6.2 |  |  | higher | approximately ten-fold higher | significantly higher | significantly higher | 3-4 % w/w | 70-80 % w/w and 70 % w/w | C#C[C@]1(O)CC[C@H]2[C@@H]3CCC4=CCCC[C@@H]4[C@H]3C(=C)C[C@@]21CC [desogestrel] | 4
